Measurements published in US20050203164A1, “Use of acylaminoalkenylene-amide derivatives in functional motility disorders of the viscera” (priority 2002, published 2005).
No end group written: not given here.

How the values were obtained:
conscious guinea pigs [1] = assay: restraint stress-induced visceral hypersensitivity, visceromotor response to colorectal distension; type: in vivo, guinea pig; conditions: restraint stress-induced colonic hypersensitivity, p<0.05 ANOVA post-hoc Dunnett's test
Procedure: (§1) In conscious guinea pigs, two experimental paradigms are applied to induce visceral hypersensitivity, i) restraint stress (immobilization of the animals in a tube) and ii) colonic tissue irritation (colonic instillation of acetic acid, 0.6% in saline, 1.5 ml, 2 cm proximal to the anus). Colorectal distension is performed by inflating a balloon to a net pressure (at the colonic wall) of 20 mmHg (26.7 mbar) for 10 minutes before and following induction of visceral hypersensitivity. During the distension period the visceromotor response, i.e. the number and quality of abdominal contractions (body arching and lifting of pelvic structures) are recorded and quantified in a blinded fashion (Al-Chaer et al., Gastroenterology 2000; 119: 1276-1285). Following the performance of baseline colorectal distension protocols, vehicle or the compound of formula II (3 and 10 mg/kg) are dosed orally one hour prior to the second colorectal distensions, which are done after the induction of visceral hypersensitivity. The effects of vehicle and the compound of formula II are assessed in 6-8 animals. […] The compound of formula II reverses the exaggerated behavioural pain responses upon colorectal balloon distensions in both restraint stress-induced and tissue irritation-induced colonic hypersensitivity.

conscious guinea pigs [2] = assay: colonic tissue irritation (acetic acid)-induced visceral hypersensitivity, visceromotor response to colorectal distension; type: in vivo, guinea pig; conditions: p<0.05 ANOVA post-hoc Dunnett's test
Procedure: as §1

[3] = test system: isolated segments of guinea pig ileum; assay: Substance P-mediated exaggerated peristalsis in organ baths (peristaltic reflex model); type: cell-based
Text: Substance P—mediated exaggerated peristalsis is studied in Mayflower organ baths using isolated segments of guinea pig ileum (Holzer et al., J. Pharmacol. Exp. Ther. 1995; 274: 322-328). The lumen of ileal segments is perfused with Krebs-Henseleit solution, and intraluminal pressures are continuously recorded. […] Any wave of peristaltic contractions results in a spike-like increase in intraluminal pressure and causes a partial emptying of fluid from the segment. Pressure thresholds triggering peristaltic contractions are used to quantify the effects of the compound of formula II.

[4] = test system: submucosalmucosa preparations of guinea pig colon; assay: epithelial secretion (electrogenic chloride secretion), Ussing chamber short circuit currents; type: cell-based
Procedure: Epithelial secretion is tested in submucosalmucosa preparations of guinea pig colon. Using Ussing chamber techniques (Frieling et al., Naunyn Schmiedebergs Arch. Pharmacol. 1999; 359: 71-79) short circuit currents are recorded, and epithelial secretion (electrogenic chloride secretion) is stimulated via cumulative treatment with substance P (0.1 nM up to 10 μM); it triggers secretion (increases in short circuit currents) in a concentration-dependent fashion (pD2=7.50 ).

[5] = 3 mg/kg p.o. one hour prior to distension
[6] = 10 mg/kg p.o. one hour prior to distension

Molecule	reversal of exaggerated behavioural pain responses upon colorectal balloon distension (conscious guinea pigs [1]; [5])	reversal of exaggerated behavioural pain responses upon colorectal balloon distension (conscious guinea pigs [1]; [6])	reversal of exaggerated behavioural pain responses upon colorectal balloon distension (conscious guinea pigs [2]; [5])	reversal of exaggerated behavioural pain responses upon colorectal balloon distension (conscious guinea pigs [2]; [6])	apparent pA2, competitive inhibition of substance P-evoked exaggerated peristalsis ([3]; 30 nM)	apparent pA2, competitive inhibition of substance P-evoked exaggerated peristalsis ([3]; 100 nM)	pA2 (Schild plot analysis), competitive inhibition of substance P-induced electrogenic chloride secretion ([4]; 30 nM, 100 nM and 300 nM)	pD2, lowering of pressure thresholds triggering peristaltic contractions ([3]; cumulative application 1 nM up to 30 μM)	pD2, stimulation of secretion (increases in short circuit currents) ([4]; cumulative treatment 0.1 nM up to 10 μM)
CN(C(=O)c1cc(C(F)(F)F)cc(C(F)(F)F)c1)[C@@H](/C=C/C(=O)N[C@@H]1CCCCNC1=O)Cc1ccc(Cl)c(Cl)c1 [compound of formula II, (4R)-4-[N′-methyl-N′-(3,5-bistrifluoromethylbenzoyl)amino]-4-(3,4-dichlorobenzyl)-but-2-enoic acid N-[(R)-epsilon-caprolactam-3-yl]-amide]	statistically significant	statistically significant	statistically significant	statistically significant	7.35	7.23	7.94	–	–
substance P: agonist applied cumulatively to evoke exaggerated peristalsis and epithelial chloride secretion (RPKPQQFFGLM; ends and bridges not checked; UniProt P20366 58-68, looked up) [reference compound]	–	–	–	–	–	–	–	7.20	7.50
